This assay concerns the target T1, human PPARα (Homo sapiens, UniProt Q07869).
T1 construct: expressed in transfected cells; host or cells: CHO-K1 cells
T1 sequence (Q07869 239-466 limits assumed): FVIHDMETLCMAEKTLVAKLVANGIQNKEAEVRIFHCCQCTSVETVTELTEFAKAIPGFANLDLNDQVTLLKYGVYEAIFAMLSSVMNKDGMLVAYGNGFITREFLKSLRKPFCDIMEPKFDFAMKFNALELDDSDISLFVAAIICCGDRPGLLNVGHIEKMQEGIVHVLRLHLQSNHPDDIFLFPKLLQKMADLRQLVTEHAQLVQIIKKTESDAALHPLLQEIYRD
Put plainly: Activation of transcription of human PPARα (Gal4-PPARα LBD luciferase reporter assay in CHO-K1 cells). The assay is classed as cell-based. The conditions noted are these: CHO-K1 cells cotransfected with Gal4 DNA-binding domain/human PPARα ligand-binding domain receptor plasmid, firefly luciferase reporter and renilla internal standard; 20 hours at 37° C. From the text: Activation of Transcription of Human Peroxisome Proliferator-Activated Receptor (PPAR) α
CHO-K1 cells cultured in Ham's F12 medium supplemented with 10% fetal calf serum were cotransfected with the following plasmids: A receptor plasmid encoding a fusion protein consisting of the DNA-binding domain of yeast transcription factor Gal4 fused to the ligand-binding domain of human PPARα (Biochemistry, 1993, 32, 5598), a reporter plasmid (STRATAGENE, firefly luciferase reporter plasmid), and a renilla luciferase plasmid for internal standard (Promega). The cotransfection was performed over a 2-hour period by using Lipofectamine (INVITROGEN) in the absence of serum. Subsequently, a test compound was added in Ham's F12 medium supplemented with 10% defatted bovine serum. The cells were then incubated at 37° C. for 20 hours. The activity of each luciferase was then determined and corrected for internal standard.
(In general: In a reporter assay the amount or activity of a reporter protein is the signal.)
What is called EC50 is the midpoint of the concentration-response curve. High values mean a less potent agent, low ones a more potent agent. In turn, `Cc1nc(-c2ccc(Cl)cc2)sc1C(=O)NCC1CCCN(c2ccccc2C(=O)O)C1` (stereo not shown) [Example 18, 2-[3-[[2-(4-Chlorophenyl)-4-methylthiazol-5-yl]carbonylaminomethyl]piperidin-1-yl]benzoic acid] registered an EC50 of 65 nM.

`Cc1nc(-c2ccc(Cl)cc2)sc1C(=O)NCC1CCCN(c2cccc(C(=O)O)c2)C1` (stereo not shown) [Example 19] returned an EC50 of 970 nM.

On to `Cc1nc(-c2ccc(Cl)cc2)sc1CNC(=O)C1CCCN(c2ccccc2C(=O)O)C1` (stereo not shown) [Example 20], for which the EC50 is 1360 nM. The figure for `Cc1nc(-c2ccc(Cl)cc2)sc1COCC1CCCN(c2ccccc2C(=O)O)C1` (stereo not shown) [Example 22] is 160 nM; for `Cc1nc(-c2ccc(Cl)cc2)sc1COCC1CCCN(c2cccc(C(=O)O)c2)C1` (stereo not shown) [Example 24] it is 1540 nM. `Cc1nc(-c2ccc(Cl)cc2)sc1COC1CCCN(c2cccc(C(=O)O)c2)C1` (stereo not shown) [Example 25] yielded an EC50 of 560 nM.

Turning to `Cc1nc(-c2ccc(Cl)cc2)sc1C(=O)NC1CCCN(c2cccc(C(=O)O)c2)C1` (stereo not shown) [Example 32], the EC50 turned out to be 20 nM.

The values are drawn from patent US7902367B2, “Cyclic amino benzoic acid derivative” (Kyorin Pharmaceutical Co., Ltd., priority 2004, dated 2011).
